# Assay results from patent publication US10023559B2 (Hoffmann-La Roche Inc., priority 2014, dated 2018).
# Assays:
# rat TAAR1 = rat TAAR1 (Rattus norvegicus (Rat), UniProt Q923Y9); assay: Radioligand binding assay on rat TAAR1; settings: read-out: Ki(μM) rat; rat TAAR1, HEK-293 membranes, second value of cell pair mouse/rat
# mouse TAAR1 = mouse TAAR1 (Mus musculus (Mouse), UniProt Q923Y8); assay: Radioligand binding assay on mouse TAAR1
# mouse TAAR1, sequence (Q923Y8 whole entry): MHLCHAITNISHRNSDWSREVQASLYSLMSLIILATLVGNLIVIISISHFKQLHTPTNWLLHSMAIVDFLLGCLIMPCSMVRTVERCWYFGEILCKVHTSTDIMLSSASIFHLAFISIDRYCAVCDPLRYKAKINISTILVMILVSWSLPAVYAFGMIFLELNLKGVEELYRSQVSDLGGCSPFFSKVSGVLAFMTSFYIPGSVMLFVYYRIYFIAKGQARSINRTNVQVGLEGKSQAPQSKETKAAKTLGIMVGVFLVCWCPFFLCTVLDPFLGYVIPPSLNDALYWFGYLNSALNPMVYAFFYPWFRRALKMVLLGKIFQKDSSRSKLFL
# Description: Membrane Preparation and Radioligand Binding.
# HEK-293 cells stably expressing mouse TAAR1 were maintained at 37° C. and 5% CO2 in DMEM high glucose medium, containing fetal calf serum (10%, heat inactivated for 30 min at 56° C.), penicillin/streptomycin (1%), and 375 μg/ml geneticin (Gibco). Cells were released from culture flasks using trypsin/EDTA, harvested, washed twice with ice-cold PBS (without Ca^2+ and Mg^2+), pelleted at 1,000 rpm for 5 min at 4° C., frozen and stored at −80° C. Frozen pellets were suspended in 20 ml HEPES-NaOH (20 mM, pH 7.4) containing 10 mM EDTA and homogenized with a Polytron (PT 6000, Kinematica) at 14,000 rpm for 20 s. The homogenate was centrifuged at 48,000×g for 30 min at 4° C. Subsequently, the supernatant was removed and discarded, and the pellet resuspended in 20 ml HEPES-NaOH (20 mM, pH 7.4) containing 0.1 mM EDTA using the Polytron (20 s at 14,000 rpm). This procedure was repeated and the final pellet resuspended in HEPES-NaOH containing 0.1 mM EDTA and homogenized using the Polytron. Typically, aliquots of 2 ml membrane portions were stored at −80° C. With each new membrane batch the dissociation constant (Kd) was determined via a saturation curve. […] Nonspecific binding was defined as the amount of ^3[H]—(S)-4-[(ethyl-phenyl-amino)-methyl]-4,5-dihydro-oxazol-2-ylamine bound in the presence of 10 M unlabeled ligand. All compounds were tested at a broad range of concentrations (10 pM to 10 μM) in duplicates. […] The 96 deep well plates were incubated for 1 hr at 4° C. Incubations were terminated by rapid filtration through Unifilter-96 plates (Packard Instrument Company) and glass filters GF/C (Perkin Elmer) presoaked for 1 hr in polyethylenimine (0.3%) and washed 3 times with 1 ml of cold binding buffer. After addition of 45 μl of Microscint 40 (PerkinElmer) the Unifilter-96 plate was sealed and after 1 hr the radioactivity counted using a TopCount Microplate Scintillation Counter (Packard Instrument Company).
# rat TAAR1, sequence (Q923Y9 whole entry): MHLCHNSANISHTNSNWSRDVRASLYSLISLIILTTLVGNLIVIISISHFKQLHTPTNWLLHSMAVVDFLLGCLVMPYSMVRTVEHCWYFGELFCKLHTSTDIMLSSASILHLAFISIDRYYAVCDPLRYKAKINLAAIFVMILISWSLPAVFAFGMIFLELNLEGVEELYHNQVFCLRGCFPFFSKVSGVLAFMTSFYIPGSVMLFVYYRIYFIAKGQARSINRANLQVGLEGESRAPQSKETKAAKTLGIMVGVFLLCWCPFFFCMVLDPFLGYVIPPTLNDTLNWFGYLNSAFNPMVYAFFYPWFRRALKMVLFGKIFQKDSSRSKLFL
SMILES,Ki (rat TAAR1) [µM],Ki (mouse TAAR1) [nM]
"CCc1cc(C(=O)Nc2cc(F)c(C=C3CNC3)c(F)c2)nc(C(F)(F)F)n1 [Example 87, N-(4-(azetidin-3-ylidenemethyl)-3,5-difluorophenyl)-6-ethyl-2-(trifluoromethyl)pyrimidine-4-carboxamide]",0.0024,12.2
"CCc1n[nH]c(C(=O)Nc2ccc(OC3CNC3)cc2)c1C [Example 11, N-(4-(azetidin-3-yloxy)phenyl)-3-ethyl-4-methyl-1H-pyrazole-5-carboxamide]",0.0808,64.5
"CCOc1ccc(C(=O)Nc2ccc(OC3CNC3)c(F)c2)cn1 [Example 28, N-[4-(azetidin-3-yloxy)-3-fluoro-phenyl]-6-ethoxy-pyridine-3-carboxamide]",0.0284,9.6
"O=C(Nc1ccc(OC2CNC2)cc1F)c1cnc(C(F)(F)F)nc1 [Example 39, N-[4-(azetidin-3-yloxy)-2-fluoro-phenyl]-2-(trifluoromethyl)pyrimidine-5-carboxamide]",0.476,62.8
"O=C(Nc1ccc(CC2CNC2)cc1)c1ccc(Cl)nc1 [Example 64, N-[4-(azetidin-3-ylmethyl)phenyl]-6-chloro-pyridine-3-carboxamide]",0.0615,15
"CO[C@H]1CN[C@@H]1Cc1ccccc1 [Example 101, (2R,3S)-2-benzyl-3-methoxyazetidine]",2.04,2610
"O=C(Nc1ccc(OC2CNC2)cc1)c1cnc(OCC(F)(F)F)nc1 [Example 19, N-(4-(azetidin-3-yloxy)phenyl)-2-(2,2,2-trifluoroethoxy)pyrimidine-5-carboxamide]",0.0208,12.8
"CCOc1ccc(C(=O)Nc2ccc(CC3(F)CNC3)cc2)nn1 [Example 67, 6-ethoxy-N-[4-[(3-fluoroazetidin-3-yl)methyl]phenyl]pyridazine-3-carboxamide]",0.0968,29.4
"CCn1cc(Cl)c(C(=O)Nc2ccc(OC3CNC3)cc2)n1 [Example 22, N-[4-(azetidin-3-yloxy)phenyl]-4-chloro-1-ethyl-pyrazole-3-carboxamide]",0.0672,2030
"O=C(Nc1ccc(C[C@H]2NC[C@H]2F)cc1)c1cnc(C(F)(F)F)nc1 [Example 123, N-(4-(((2R,3R)-3-fluoroazetidin-2-yl)methyl)phenyl)-2-(trifluoromethyl)pyrimidine-5-carboxamide]",0.61,23.2
"CCOc1ccc(C(=O)Nc2ccc(C[C@@H]3NC[C@@H]3F)cc2)cn1 [Example 128, 6-ethoxy-N-(4-(((2S,3S)-3-fluoroazetidin-2-yl)methyl)phenyl)nicotinamide]",0.0204,2.3
"COC1(Cc2ccc(NC(=O)c3cnc(C(F)(F)F)nc3)cc2)CNC1 [Example 74, N-[4-[(3-methoxyazetidin-3-yl)methyl]phenyl]-2-(trifluoromethyl)pyrimidine-5-carboxamide]",0.0417,52.9
"O=C(Nc1ccc(OC2CNC2)cc1)c1[nH]nc(C2CC2)c1Br [Example 31, N-[4-(azetidin-3-yloxy)phenyl]-4-bromo-3-cyclopropyl-1H-pyrazole-5-carboxamide]",0.0151,3.6
"CCc1ncc(C(=O)Nc2ccc(OC3CNC3)cc2)cn1 [Example 15, N-[4-(azetidin-3-yloxy)phenyl]-2-ethyl-pyrimidine-5-carboxamide]",0.261,57.1
"CC(C)c1cc(C(=O)Nc2ccc(C[C@H]3NC[C@H]3F)cc2)[nH]n1 [Example 125, N-(4-(((2R,3R)-3-fluoroazetidin-2-yl)methyl)phenyl)-3-isopropyl-1H-pyrazole-5-carboxamide]",0.466,16
"O=C(Nc1ccc(C[C@@H]2NC[C@@H]2F)cc1)c1cnc(C2CC2)nc1 [Example 129, 2-cyclopropyl-N-(4-(((2S,3S)-3-fluoroazetidin-2-yl)methyl)phenyl)pyrimidine-5-carboxamide]",0.055,8.9
"O=C(Nc1ccc(OC2CNC2)cc1)c1cc(C2CC2)n[nH]1 [Example 10, N-(4-(azetidin-3-yloxy)phenyl)-3-cyclopropyl-1H-pyrazole-5-carboxamide]",0.0887,414
"O=C(Nc1ccc(CC2(F)CNC2)cc1)c1ccc(Cl)nc1 [Example 54, 6-chloro-N-[4-[(3-fluoroazetidin-3-yl)methyl]phenyl]pyridine-3-carboxamide]",0.0182,3
"Cc1cc(C(=O)Nc2ccc(C[C@H]3NC[C@H]3F)cc2)nc(C(F)(F)F)n1 [Example 119, N-(4-(((2R,3R)-3-fluoroazetidin-2-yl)methyl)phenyl)-6-methyl-2-(trifluoromethyl)pyrimidine-4-carboxamide]",1.18,336
"O=C(Nc1ccc(Cl)c(C(F)(F)F)c1)c1ccc(OC2CNC2)cc1 [Example 37, 4-(azetidin-3-yloxy)-N-(4-chloro-3-(trifluoromethyl)phenyl)benzamide]",0.0026,0.7
"CC(C)c1n[nH]c(C(=O)Nc2ccc(OC3CNC3)cc2)c1Cl [Example 33, N-[4-(azetidin-3-yloxy)phenyl]-4-chloro-3-isopropyl-1H-pyrazole-5-carboxamide]",0.0115,7.5
"CC(C)c1cc(C(=O)Nc2ccc(OC3CNC3)cc2)[nH]n1 [Example 12, N-(4-(azetidin-3-yloxy)phenyl)-3-isopropyl-1H-pyrazole-5-carboxamide]",0.0927,137
"Cn1nc(C(=O)Nc2ccc(OC3CNC3)cc2)c(Cl)c1C(F)(F)F [Example 43, N-[4-(azetidin-3-yloxy)phenyl]-4-chloro-1-methyl-5-(trifluoromethyl)pyrazole-3-carboxamide]",0.0435,6.8
"F[C@H]1CN[C@H]1Cc1ccccc1 [Example 90, (2S,3S)-2-benzyl-3-fluoroazetidine]",0.274,4380
"O=C(Nc1ccc(CC2(F)CNC2)cc1)c1cnc(OCC(F)(F)F)nc1 [Example 69, N-[4-[(3-fluoroazetidin-3-yl)methyl]phenyl]-2-(2,2,2-trifluoroethoxy)pyrimidine-5-carboxamide]",0.0361,42.1
"O=C(Nc1ccc(OC2CNC2)cc1)c1[nH]nc(C2CC2)c1Cl [Example 13, N-(4-(azetidin-3-yloxy)phenyl)-4-chloro-3-cyclopropyl-1H-pyrazole-5-carboxamide]",0.0178,3.3
"O=C(Nc1ccc(C[C@H]2NC[C@H]2F)cc1)c1ccnc(C(F)(F)F)c1 [Example 121, N-(4-(((2R,3R)-3-fluoroazetidin-2-yl)methyl)phenyl)-2-(trifluoromethyl)isonicotinamide]",0.809,7
"FC(F)(F)c1nccc(Nc2ccc(C=C3CNC3)cc2)n1 [Example 62, N-[4-(azetidin-3-ylidenemethyl)phenyl]-2-(trifluoromethyl)pyrimidin-4-amine]",0.0181,8.1
"O=C(Nc1ccc(OC2CNC2)cc1)c1nn(CC(F)(F)F)cc1Cl [Example 21, N-[4-(azetidin-3-yloxy)phenyl]-4-chloro-1-(2,2,2-trifluoroethyl)pyrazole-3-carboxamide]",0.0207,653
